{"source": "patent US20250120932A1", "about": "“PHARMACEUTICAL COMPOSITION” (NEUROPRO THERAPEUTICS, INC., priority 2021, published 2025)", "key": {"[1]": {"assay": "Solubility at 50° C. in common SEDDS excipients by visual inspection", "assay_type": "physicochemical"}, "[2]": {"assay": "Nasal solution solubility evaluation in solvent/co-solvent systems (HPLC-UV)", "assay_type": "physicochemical", "details": "organic solvent or mixture, thermodynamic from solid; Caprylocaproyl Polyoxylglycerides (Labrasol ALF), Composition 8", "procedure": "The solvents were chosen from a group consisting of Caprylocaproyl Polyoxylglycerides (Labrasol ALF), propylene glycol, PEG-400, vitamin E TPGS, ethanol, water, and any combination thereof.\n50 g stock solutions of each solvent system were prepared. The active solutions 3.0 mL of each solvent was aliquoted to separate 8 mL clear glass vials. […] Every 30 minutes the solutions were inspected. […] This process was repeated until visible saturation of all solvent systems was obtained. Prior to analysis, the samples were centrifuged at 5,000 RPM for 3 minutes and filtered through a 0.45 μm nylon syringe filter to remove excess solids.\nThe dose calculations included in Table 42 are based on 75% of the concentration at saturation. This is to reduce the risk of precipitation/crystallization due to environmental fluctuations. Additionally, two dose volumes (0.2/0.5 mL) were selected in accordance with the standard range for nasal delivery. The total dose illustrated is based on the equivalent volume delivered to each nostril, 0.4-1.0 mL total per dose."}, "[3]": {"assay": "Effect of water content on solubility (formulations F1-F3)", "assay_type": "physicochemical", "procedure": "Increasing amounts of PVP and Poloxamer were added to compositions F1-F3 to inhibit rapid precipitation upon dilution in water.\nThe solutions were then cooled to ambient room temperature and mixed for ˜4 hours prior to filtering and being evaluated by an assay."}, "in vitro": {"assay": "in vitro", "details": "human, Caco-2, pH 7.4, % Solution Recovery", "procedure": "Caco-2 cells purchased from ATCC were seeded onto […] (PET) in 96-well Corning Insert plates at 1×10^5 cells/cm^2, and refreshed medium every 4˜5 days until to the 21st to 28th day for confluent cell monolayer formation.\nThe transport buffer in the study was HBSS with 10.0 mM HEPES at pH 7.40±0.05. Test compound was tested at 2.00 μM bi-directionally in duplicate. Digoxin was tested at 10.0 μM bi-directionally in duplicate, while nadolol and metoprolol were tested at 2.00 μM in A to B direction in duplicate. Final DMSO concentration was adjusted to less than 1%. The plate was incubated for 2 hours in CO2 incubator at 37±1° C., with 5% CO2 at saturated humidity without shaking. And all samples after mixed with acetonitrile containing internal standard were centrifuged at 3200×g for 10 min. For nadolol and metoprolol, 200 μL supernatant solution was diluted with 600 μL ultra-pure water for LC-MS/MS analysis. For digoxin and test compounds, 200 μL supernatant solution was diluted with 200 μL ultra-pure water for LC-MS/MS analysis. Concentrations of test and control compounds in starting solution, donor solution, and receiver solution were quantified by LC-MS/MS methodologies, using peak area ratio of analyte/internal standard. After transport assay, lucifer yellow rejection assay was applied to determine the Caco-2 cell monolayer integrity.\nThe apparent permeability coefficient Papp (cm/s) was calculated using the equation: […]\nWhere dCp/dt is the cumulative concentration of compound in the receiver chamber as a function of time (μM/s); Vr is the solution volume in the receiver chamber (0.075 mL on the apical side, 0.25 mL on the basolateral side); A is the surface area for the transport, i.e. 0.0804 cm^2 for the area of the monolayer; Co is the initial concentration in the donor chamber (μM). The efflux ratio was calculated using the equation: […]\nPercent recovery was calculated using the equation: […]\nWhere Vd is the volume in the donor chambers (0.075 mL on the apical side, 0.25 mL on the basolateral side); Ca and Cr are the final concentrations of transport compound in donor and receiver chambers, respectively."}, "[4]": {"assay": "Solubility in 1:1 mixture of Gelucire 44/14 and Span 80 (tablet solubilizer)", "assay_type": "physicochemical", "procedure": "After successful completion of the dry blend tablet formulation, efforts were made to attempt to enhance solubilization of the drug. Upon successful creation of the tablet prototype batch A, the tablet prototype batch B was developed wherein Bumetanide Dibenzylamide solubilizers were incorporated directly into the dry blend tablet formulation. […] The 1:1 ratio of Lauroyl Polyoxyl-32 Glycerides (Gelucire 44/14), to Sorbitan Ester (Span 80), was determined by combined melting point, taste, viscosity, and solubilizing ability. The ratio provided a semi-solid, which may be liquefied upon application of low heat. […] This mixture was kept under constant stirring to ensure complete even dispersal of ingredients. Continuing under constant heating and mixing, Neusilin US2 (Magnesium Aluminometasilicate) was slowly added to adsorb the viscous mixture onto its particles rough surface. Upon complete adsorption the heat was removed with continued mixing until room temperature was reached. The cooled, hot-melt granulation was then sieved and blended with sieved Polyplasdone XL (Super Disintegrate), Cabosil M5P (fumed silica), and Citric Acid Monohydrate, and Magnesium Stearate. Table 58 illustrates the formulation employed for a sublingual tablet prototype batch B, which was utilized for canine studies. […]"}, "[5]": {"assay": "Pharmacokinetic profile after single intravenous or oral gavage dose in rats", "details": "for C0: back predicted to time 0", "method": "Animals were dosed via oral gavage or intravenous injection once on Day 1 at a volume of 5 mL/kg for Group 1 and 10 mL/kg for Group 2. The vehicle was 40% (v/v) Polyethylene Glycol 400 (PEG400), 20% (v/v) Propylene Glycol, 5% (v/v) Ethanol, and 35% (v/v) water for Group 1 and the vehicle was 0.5% (w/v) Carboxymethylcellulose (medium viscosity) in reverse osmosis water for Group 2.\nBlood samples (approximately 0.5 mL) were collected from nonfasted toxicokinetic animals via a jugular vein on Day 1 of the dosing phase, as indicated in Table 18\nBlood was collected into tubes containing potassium (K2) EDTA as the anticoagulant. Samples were maintained on wet ice and were centrifuged within 30 minutes of collection. Plasma was harvested and stored on dry ice until placed in a freezer, set to maintain −60 to −80° C., until shipped on dry ice to Origin Bioanalytical Laboratory, Inc. for analysis.\nPharmacokinetic parameters were derived using non-compartmental methods employing Phoenix WinNonlin® version 8.1 (Pharsight Corp; St. Louis, MO). The PK parameters defined previously in Table 10 were calculated by non-compartmental methods using composite plasma concentration-time data obtained from 3 rats/sex/time point/dose. The area under the concentration-time curve from zero time (pre-dose) to the last time point was calculated by a combination of linear and logarithmic trapezoidal methods. The linear trapezoidal method was employed for all incremental trapezoids arising from increasing concentrations and the logarithmic trapezoidal method was used for those arising from decreasing concentrations (linear up/log down method). Nominal blood sampling times were used in the analysis. […] Individual BQL results were set to zero for all calculations. No animals were excluded from the analysis."}, "[6]": {"details": "male, Hsd: Sprague Dawley, rat, plasma, iv, 10 mg/kg"}, "[7]": {"details": "rats, oral 30 mg/kg vs IV 10 mg/kg"}}, "note": "Several values for one entry are separate records, joined by “and”; a condition that tells them apart may be missing. Equal entries are not always repeated. Marks after values point to notes of the source that are not given here."}
{"compound": "CCCCNc1cc(C(=O)N(Cc2ccccc2)Cc2ccccc2)cc(S(N)(=O)=O)c1Oc1ccccc1", "note": "[Bumetanide Dibenzylamide, N, N-dibenzyl 3-aminosulfonyl-5-butylamino-4-phenoxybenzamide]", "values": [{"measurement": "Bumetanide Dibenzylamide, in solution", "setting": "[1]; Captex 300 (Caprylic/Capric Triglyceride, Medium Chain Triglyceride), 50° C.", "result": "<1* mg/ml"}, {"measurement": "Bumetanide Dibenzylamide, in solution", "setting": "[1]; Drakeol 6VR LT (Mineral Oil), 50° C.", "result": "<1* mg/ml"}, {"measurement": "Bumetanide Dibenzylamide, in solution", "setting": "[1]; Kolliphor EL (Polyoxyl 35 castor oil), 50° C.", "result": 13.5, "unit": "mg/mL"}, {"measurement": "Bumetanide Dibenzylamide, in solution", "setting": "[1]; Labrafac Lipophile WL 1349 (Medium Chain Triglyceride), 50° C.", "result": 3, "unit": "mg/mL"}, {"measurement": "Bumetanide Dibenzylamide, in solution", "setting": "[1]; Labrafil M 1944CS (Oleoyl polyoxyl 1-6 glycerides), 50° C.", "result": 4.5, "unit": "mg/mL"}, {"measurement": "Bumetanide Dibenzylamide, in solution", "setting": "[1]; Labrasol ALF (Caprylocaproyl Polyoxylglycerides), 50° C.", "result": 63, "unit": "mg/mL"}, {"measurement": "Bumetanide Dibenzylamide, in solution", "setting": "[1]; Lauroyl Plyoxyl-32 Glycerides (Gelucire 44/14), 50° C.", "result": 106, "unit": "mg/mL"}, {"measurement": "Bumetanide Dibenzylamide, in solution", "setting": "[1]; Oleic Acid, 50° C.", "result": "<1* mg/ml"}, {"measurement": "Bumetanide Dibenzylamide, in solution", "setting": "[1]; Oleyl Alcohol, 50° C.", "result": "<1* mg/ml"}, {"measurement": "Bumetanide Dibenzylamide, in solution", "setting": "[1]; Polyethylene Glycol 400, 50° C.", "result": 8.6, "unit": "mg/mL"}, {"measurement": "Bumetanide Dibenzylamide, in solution", "setting": "[1]; Propylene Glycol, 50° C.", "result": 2, "unit": "mg/mL"}, {"measurement": "Bumetanide Dibenzylamide, in solution", "setting": "[1]; Sorbitan Ester (Span 80), 50° C.", "result": 250, "unit": "mg/mL"}, {"measurement": "Bumetanide Dibenzylamide, in solution", "setting": "[1]; Soybean Oil, 50° C.", "result": 2, "unit": "mg/mL"}, {"measurement": "solubility at 8 h", "setting": "[2]", "result": "~66", "unit": "mg/mL"}, {"measurement": "maximum concentration of Bumetanide Dibenzylamide", "setting": "[3]; rectal gel, about 20% water", "result": "about 2.4%"}, {"measurement": "maximum concentration of Bumetanide Dibenzylamide", "setting": "[3]; rectal paste, no water", "result": "about 4.16%"}, {"measurement": "recovery at 2 h, 2 μM", "setting": "in vitro", "result": "< 50", "unit": "%"}, {"measurement": "solubility", "setting": "[4]", "result": "approximately 500 mg/g"}, {"measurement": "Plasma Bumetanide Dibenzylamide concentration", "setting": "[5]; male rats, IV bolus 10 mg/kg, 1 h, 10 mg/kg", "result": 1040, "unit": "ng/mL"}, {"measurement": "AUC(0-inf)", "setting": "[5]; [6]", "result": 3730, "unit": "ng·h/mL"}, {"measurement": "Vd", "setting": "[5]; [6]", "result": 10.1, "unit": "L/kg"}, {"measurement": "clearance", "setting": "[5]; [6]", "result": 44.7, "unit": "mL/min/kg"}, {"measurement": "C0", "setting": "[5]; male, Hsd: Sprague Dawley, rat, plasma, iv, 10 mg/kg, C0, rats, IV bolus 10 mg/kg", "result": 2780, "unit": "ng/mL"}, {"measurement": "concentration at 0.08 h", "setting": "[5]; male, Hsd: Sprague Dawley, rat, plasma, iv, 10 mg/kg, Plasma Bumetanide Dibenzylamide concentration, male rats, IV bolus 10 mg/kg, 0.08 h", "result": 2510, "unit": "ng/mL"}, {"measurement": "concentration at 4 h", "setting": "[5]; male, Hsd: Sprague Dawley, rat, plasma, po, 30 mg/kg, Plasma Bumetanide Dibenzylamide concentration, male rats, oral 30 mg/kg, 4 h", "result": 4.56, "unit": "ng/mL"}, {"measurement": "concentration at 1 h", "setting": "[5]; male, Sprague Dawley, rat, plasma, iv, 10 mg/kg, Plasma Bumetanide Dibenzylamide concentration, male rats, IV bolus 10 mg/kg, 1 h", "result": 993, "unit": "ng/mL"}, {"measurement": "C0", "setting": "[5]; rats, IV bolus 10 mg/kg, 10 mg/kg", "result": 2720, "unit": "ng/mL"}, {"measurement": "Fabs (%)", "setting": "[5]; [7]", "result": "0.34% and 0.32%"}, {"measurement": "Fabs (ratio)", "setting": "[5]; [7]", "result": "0.0034 and 0.0032"}]}
